Experiments:
[1] = microbe, parasite or virus in culture; conditions: Mycobacterium tuberculosis, 96 h, read-out: pIC50 (converted)
[2] = microbe, parasite or virus in culture; conditions: Mycobacterium tuberculosis, 72 h, read-out: pIC50 (converted)
Plasmodium falciparum = test: Calibr Malaria Delayed Death Assay SOP; type: functional, organism-based; conditions: for IC50: Plasmodium falciparum

SMILES	IC50 [1] [nM]	IC50 [2] [nM]	pIC50 (Plasmodium falciparum)	IC50 (Plasmodium falciparum) [nM]
O=C(CCN1CCCC(CO)(CC2CC2)C1)NCc1cccc(Cl)c1 (stereo not given)	> 50100	> 50100	5.764	1320
O=C(CCN1CCCC1c1cccc2c1OCCO2)N1CCCCC1 (stereo not given)	> 50100	25200	5.987	845
COc1ccc2[nH]c(CNc3cc(C4CCNCC4)nc(C)n3)cc2c1	12400	14300	5.758	1830
CC[C@H]1CN2CC[C@H]1C[C@@H]2CNC(=O)Nc1cc(OC)cc(OC)c1	> 50100	> 50100	6.272	762
CCOc1cccc(CN2CCCC(Nc3ccc(F)cc3)C2)c1O (stereo not given)	46100	–	6.217	577
CCCn1ccnc1CN1CCCC1c1ccccn1 (stereo not given)	> 50100	> 50100	6.456	395
Cl.Cl.Clc1cccc(C[C@@H]2NCCC[C@@H]2Nc2ccccc2)c1	16000	12000	6.034	789
CC1CCCCN1C(=O)c1coc(COc2cccc3cnccc23)n1 (stereo not given)	24400	44000	6.214	616
CS(=O)(=O)CCCNC1(c2cccc(Cl)c2)CCCC1	> 50100	> 50100	6.268	870
CC(Nc1nc(-c2ccccc2)nc2c1CCNCC2)c1cccnc1 (stereo not given)	28000	27600	5.884	1460
OC1(CN2CCC(Oc3cccc(C(F)(F)F)c3)CC2)CCNC1 (stereo not given)	–	> 50100	6.152	690
Cc1nc(-c2cc(Cl)c3c(c2)CC(CN)O3)c[nH]1 (stereo not given)	8330	2580	5.986	1390
Cc1cc(Cc2cccc(C(F)(F)F)c2)cc(C2CCCNC2)n1 (stereo not given)	37900	25300	6.047	1120
Cn1ccnc1CN(Cc1ccccn1)Cc1ccccc1Cl.O=C(O)CC(O)(CC(=O)O)C(=O)O	–	45500	6.114	725
Cc1ccc(CNCc2cccc3cccnc23)c(OC2CCOC2)c1 (stereo not given)	> 50100	> 50100	6.31	619
Oc1ccc(Cl)cc1CNCc1cccc(C(F)(F)F)c1	29100	43200	6.177	653
CCc1cnc(N)nc1NC(C)c1ccc(C)c(C)c1 (stereo not given)	44100	23800	6.042	893
c1ccc(C2CN(C3CC3)CC3(CCN(Cc4cscn4)CC3)C2)cc1 (stereo not given)	25700	26100	6.129	969
Cc1cnn(CCCNCc2csc(COc3ccccc3)n2)c1	11400	27800	6.021	828
CO[C@@H]1CCN(Cc2ccoc2)C[C@@H]1Cc1ccccc1.O=C(O)C(F)(F)F	–	–	5.938	1080
CC(O)CN1CCC(CNCc2cccc(Br)c2)CC1 (stereo not given)	–	–	6.286	528
Cc1ccc(C2(CN(C)Cc3sccc3C)CCNCC2)nc1	–	–	6.117	515
Cc1ccc(CN2CCC3(CC2)CCN(Cc2ccco2)CC3)cc1.O=C(O)C(F)(F)F.O=C(O)C(F)(F)F	–	–	6.236	555
O=S(=O)(NCC(c1ccsc1)N1CCCCCC1)c1cccs1 (stereo not given)	–	–	6.118	904
Fc1cccc(C(NCc2ncc[nH]2)c2ccccn2)c1 (stereo not given)	–	–	6.434	351

SMILES	IC50 [1] [nM]	IC50 [2] [nM]	pIC50 (Plasmodium falciparum)	IC50 (Plasmodium falciparum) [nM]
CCOc1ccc(CN2CCCC(c3cc4ncccc4[nH]3)C2)cc1 (stereo not given)	24800	33600	6.15	842
CCC1CN(CC(=O)NCCN2CCCCC2)c2ccccc2S1 (stereo not given)	–	–	6.107	937
Cc1cc(F)ccc1N1CCC(N2C[C@@H](CN(C)C)[C@@H](CO)C2)CC1	–	–	6.511	314
Cc1cc(C)n(C2CN(CC(O)c3ccc(C(F)(F)F)cc3)C2)n1 (stereo not given)	–	–	5.98	1030
CC(C)C(=O)N1CCCC2(CCCN2CC2CCCC2)C1.O=C(O)C(F)(F)F (stereo not given)	–	–	5.828	1150
COCCN1CCC2(CC1)CC(NCc1ccc(C)s1)c1ccccc12.O=C(O)C(F)(F)F.O=C(O)C(F)(F)F (stereo not given)	–	–	6.267	561
Nc1nc2c(c(N3CCCC(c4nnc5ccccn45)C3)n1)CCNC2 (stereo not given)	–	–	6.831	144
NCC1[C@H]2CN(Cc3cccc(Cl)c3)C[C@@H]12 (stereo not given in full)	–	–	6.278	553
CN(Cc1cc(Cl)cc2cccnc12)CC1CCN(CCO)CC1	–	–	6.604	346
CN(C)c1nc2c(c(NCc3cc(O)ncn3)n1)CCCC2	–	–	6.202	643
COc1cc(CNCC(O)c2cccc(F)c2)cc2c1OCO2.Cl (stereo not given)	–	–	6.133	729
CCC(CNC(=O)CNC(C)=O)Oc1cccc(F)c1 (stereo not given)	–	–	5.937	1020
Cc1noc(C)c1CNCc1ccccc1N(C)C1CCN(C)CC1	–	–	6.243	489
O=C(NC1CCN(CC2CC2)C1)N1CCC(OC2CCCCC2)CC1 (stereo not given)	–	–	6.591	332
CC[C@H]1CN2CC[C@H]1C[C@@H]2CNCc1ccc(OC(F)(F)F)cc1	19800	31900	6.073	806
CCCOc1ccccc1CN[C@@H]1CCC[C@H]1Cc1cc(C)no1.O=C(O)CC(O)(CC(=O)O)C(=O)O	–	–	5.985	1230
COc1cccc(CN2CCCC(Nc3cccc(F)c3)C2)c1O (stereo not given)	–	–	6.314	810
CC(NCC1CCN(CCO)CC1)c1ccc(Cl)cc1 (stereo not given)	–	–	6.133	671
FC(F)(F)c1cc(C2CCNCC2)nc(-c2ccsc2)n1	–	–	6.171	626
CN(C)[C@@H]1CCN(c2ncccn2)[C@H]1Cc1ccccc1	–	–	6.116	554
c1ccc(-c2nc3c(c(NCc4n[nH]c5c4CCC5)n2)CCNC3)cc1	46100	25700	6.219	902
COc1cccc([C@H]2CN(C(C)=O)[C@@H]3CCN(Cc4ccsc4)C[C@H]23)c1.Cl	–	–	5.897	1070
Cc1cc(CN2CCC(CNS(=O)(=O)c3ccc(Br)s3)CC2)c(C)o1	–	–	6.178	639
CC(C)(C)C(=O)N1C[C@H](c2ccsc2)[C@H]2CN(C3CCCCC3)CC[C@H]21.Cl	–	–	6.133	683
COCCN(C)Cc1cc(Cl)ccc1OCC(O)CN1CCCCCC1 (stereo not given)	12400	> 50100	6.019	953

SMILES	IC50 [1] [nM]	IC50 [2] [nM]	pIC50 (Plasmodium falciparum)	IC50 (Plasmodium falciparum) [nM]
CC1(C)CN(C(CNC2=NCCN2)c2ccc(Cl)cc2)CCO1.I (stereo not given)	–	–	6.344	478
Cc1cc(Cl)ccc1S(=O)(=O)NCC(C)N1CCN(C)CC1 (stereo not given)	–	–	6.144	444
c1cncc(-c2ccc3c(c2)CCC32CCNCC2)c1	40900	46200	5.939	1280
CCN1CCN(c2ccc(F)cc2C(C)NCc2cscn2)CC1 (stereo not given)	–	–	5.999	907
CN(CCO)C[C@@H]1CN(Cc2ccccc2-c2ccccc2)C[C@@H]1CO	–	–	6.276	611
Cc1cccc(C)c1Nc1noc2c1CN(C(=O)c1ccnn1C)CC2	–	–	6.86	142
CCC(NCc1cccc(Cl)c1)c1ccccc1OCC(=O)NC (stereo not given)	–	–	6.073	1370
CC(C)(C)n1cc(C2=CCN(CCN3CCCCCC3)CC2)cn1	–	–	5.987	994
CN(Cc1ncc[nH]1)c1nc(-c2ccccn2)nc2c1CCNCC2	–	–	6.511	292
O=C(O)C(F)(F)F.c1ccc(C[C@H]2CN(C3CCOCC3)CC[C@H]2OCC2CC2)cc1	–	–	6.236	757
CN(C)[C@@H]1CCN(S(=O)(=O)C2CC2)[C@H]1Cc1ccccc1.O=C(O)C(F)(F)F	–	–	5.682	2830
c1cc(-c2n[nH]cc2-c2ccnc(N3CCCC3)n2)ccn1	–	–	7.446	30.5
OC[C@@H]1CCCN1c1nccc(-c2c[nH]nc2-c2ccncc2)n1	–	–	6.195	764
Cc1ccc(CN2CCCC3(CCN(Cc4ccoc4)CC3)C2)cc1.O=C(O)C(F)(F)F.O=C(O)C(F)(F)F	–	–	6.068	1110
O=C(Cn1ccc2ccc(Br)cc21)NC[C@@H]1CCCN2CCCC[C@H]12	–	–	5.89	1280
CN(Cc1ccsc1)c1nc(-c2ccccn2)nc2c1CCNCC2	–	–	6.41	399
c1cnnc(N2CCCC2CNc2ncnc3sccc23)c1 (stereo not given)	–	–	5.797	1260
CCN1CCC2(CC1)CC(NCc1cccc(C)n1)c1ccccc1O2.O=C(O)C(F)(F)F.O=C(O)C(F)(F)F.O=C(O)C(F)(F)F (stereo not given)	–	–	6.22	780
CN(Cc1cc(F)cc2cccnc12)CC1CCN(CCO)CC1	–	–	6.165	835
Cc1cc(C[C@@H]2CCC[C@H]2NCc2c[nH]nc2-c2ccccc2)on1.O=C(O)CC(O)(CC(=O)O)C(=O)O	–	–	5.845	1230
Cl.NCC1(c2cccc(Br)c2)CCOCC1	–	–	6.127	705
CN1CCC(N(C)c2ccccc2CNCc2ccco2)CC1	–	–	6.649	157
Cc1nn(C)cc1C1=NS(=O)(=O)N(C)C(C(=O)Nc2ccc(Cl)cc2)=C1	–	–	6.442	247
CNc1cc(C)nc(NC2CCCN(C3Cc4ccccc4C3)C2)n1 (stereo not given)	–	–	6.074	775
CC(C)n1ncc2c1NC(=O)CC21C(=O)Nc2c(Cl)ccc(Cl)c21 (stereo not given)	–	–	5.929	1080
